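Briefly, cells in 96-well plates were exposed to five compound concentrations for 48 h, and endpoints were estimated by linear interpolation. Abbreviation: GI50, concentration required for 50% inhibition of growth.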 Activity calls are given as the source filed them. Rule as the data show it: active = GI50 up to about 1.1 µM and inactive = higher.

Among the test systems are UO-31; U-251; CCRF-CEM; NCI-H522; SF-295; HCT-15; OVCAR-4; LOX IMVI; HOP-62; M19-MEL; SF-539; SK-OV-3; KM12; DU-145; HL-60; SW-620; CAKI-1; BT-549; MDA-N; SK-MEL-2.
Common to all, as to experiment: NCI-60 cell line screen, 48 h

In the case of `Cc1cc(C)nc(NS(=O)(=O)c2ccc(Nc3c4ccccc4nc4c(C(=O)Nc5ccc(S(=O)(=O)Nc6cc(C)on6)cc5)ccc(Cl)c34)cc2)n1`, the GI50 is 20.8 µM (inactive) in the test on UO-31; 15.9 µM (inactive) in the test with U-251; 21.8 µM (inactive) with CCRF-CEM; 21.5 µM (inactive) in the test on NCI-H522; 20.7 µM (inactive) in the test on SF-295; 28.9 µM in the test with HCT-15. The GI50 with OVCAR-4 is 28.6 µM (inactive); in the test on LOX IMVI, 22.2 µM (inactive); with HOP-62, 21.5 µM (inactive); in the test on M19-MEL, 37.9 µM (inactive); in the test with SF-539, 21.5 µM (inactive); with SK-OV-3, 69.7 µM (inactive). Moreover, the GI50 in the test on KM12 was 17.3 µM (inactive).
For `Oc1c(CN2CCCC2)ccc2cccnc12`, the GI50 is 3.44 µM (inactive) in the test with UO-31; 23.2 µM (inactive) in the test on DU-145; 16.2 µM (inactive) in the test on U-251; 8.77 µM (inactive) in the test on CCRF-CEM; 4.94 µM (inactive) in the test with HL-60; 27.6 µM (inactive) in the test on NCI-H522. Also, the GI50 with SW-620 was 24.2 µM (inactive); with CAKI-1 it was 6.04 µM (inactive); in the test on SF-295, 13 µM (inactive); in the test on BT-549, 46.1 µM (inactive); in the test on MDA-N, 39.4 µM (inactive); in the test with HCT-15, 2.84 µM. Further, the GI50 with OVCAR-4 was 14.9 µM (inactive); in the test with LOX IMVI, 15.5 µM (inactive); in the test on HOP-62 it was 13.3 µM (inactive); in the test with SF-539 it was 24 µM (inactive); with SK-OV-3, 25.9 µM (inactive); in the test with SK-MEL-2, > 47 µM (inactive). For the same molecule, in the test on KM12, the GI50 was 24.8 µM (inactive).
As to `Nc1n[n+]([O-])c2cnccc2[n+]1[O-]`, the GI50 is > 100 µM (inactive) in the test on UO-31; > 100 µM (inactive) with DU-145; 58.2 µM (inactive) in the test with U-251; 8.28 µM (inactive) in the test with CCRF-CEM; 13.6 µM (inactive) with HL-60; > 100 µM (inactive) with NCI-H522. Moreover, the GI50 was 38.4 µM (inactive) with SW-620; > 100 µM (inactive) in the test with CAKI-1; 45.6 µM (inactive) in the test on SF-295; 45.2 µM (inactive) with BT-549; 20.7 µM (inactive) in the test on MDA-N; 32 µM in the test on HCT-15. The GI50 in the test on OVCAR-4 is 56.2 µM (inactive); with LOX IMVI, 52.2 µM (inactive); in the test on HOP-62 it was > 100 µM (inactive); with SF-539, 47.9 µM (inactive); in the test with SK-OV-3, > 100 µM (inactive); with SK-MEL-2, > 100 µM (inactive). Moreover, the GI50 with KM12 was 58.7 µM (inactive).
For `Cc1c(C)c(C)c(CSC(=N)N)c(C)c1C`, the GI50 in the test on UO-31 was 6.52 µM (inactive); in the test on DU-145 it was 16.9 µM (inactive); in the test on U-251 it was 13.6 µM (inactive); in the test with CCRF-CEM, 15.5 µM (inactive); in the test with HL-60 it was 8.57 µM (inactive); with NCI-H522 it was 16.3 µM (inactive). For the same molecule, the GI50 in the test on SW-620 was 15.6 µM (inactive); with CAKI-1, 11.5 µM (inactive); in the test on SF-295 it was 7.52 µM (inactive); with BT-549 it was 16.4 µM (inactive); in the test on MDA-N it was 16.9 µM (inactive); with HCT-15, 16.2 µM. Also, the GI50 was 15.6 µM (inactive) with OVCAR-4; 26.2 µM (inactive) with LOX IMVI; 15.5 µM (inactive) in the test with HOP-62; 15.7 µM (inactive) in the test with SF-539; 16 µM (inactive) in the test on SK-OV-3; 14.6 µM (inactive) in the test on SK-MEL-2. Besides, the GI50 in the test with KM12 is 18.4 µM (inactive).
As to `O=C(NC(=O)c1ccccc1)OC(c1ccccc1)C1CO1` (configuration not stated), the GI50 with UO-31, in the test on DU-145, with U-251, with CCRF-CEM, in the test on HL-60 and in the test with NCI-H522 was > 100 µM (inactive) throughout. The GI50 in the test on SW-620 is > 100 µM (inactive); with CAKI-1, > 100 µM (inactive); in the test with SF-295, > 100 µM (inactive); in the test with BT-549, > 100 µM (inactive); in the test with MDA-N, > 100 µM (inactive); in the test on HCT-15 it was above 100 µM. The GI50 with OVCAR-4, in the test with LOX IMVI, in the test on HOP-62, with SF-539, in the test on SK-OV-3 and with SK-MEL-2 was > 100 µM (inactive) each time. The GI50 with KM12 was > 100 µM (inactive).
Turning to `N/C(=N\NC(=O)c1nc2ccccc2s1)c1ccccn1`, the GI50 is 2.26 µM (inactive) with UO-31; 4.27 µM (inactive) with DU-145; 4.79 µM (inactive) in the test with U-251; 2.42 µM (inactive) in the test with CCRF-CEM; 0.452 µM (active) in the test with HL-60; 13.8 µM (inactive) in the test with NCI-H522. In addition, the GI50 with SW-620 is 6.82 µM (inactive); in the test on CAKI-1, 1.55 µM (inactive); in the test with SF-295, 3.83 µM (inactive); in the test on BT-549, 31.3 µM (inactive); with MDA-N, 11.7 µM (inactive); in the test with HCT-15 it was 2.56 µM. In addition, the GI50 in the test with OVCAR-4 was 0.706 µM (active); in the test with LOX IMVI, 4.93 µM (inactive); with HOP-62, 10.3 µM (inactive); with SF-539, 3.59 µM (inactive); in the test on SK-OV-3, 9.79 µM (inactive); in the test with SK-MEL-2, 19.5 µM (inactive). Besides, the GI50 with KM12 was 8.79 µM (inactive).
Take `N#Cc1ncn(-c2ccccc2)c1N`: the GI50 in the test on UO-31, in the test with DU-145, in the test with U-251, with CCRF-CEM, with HL-60 and in the test on NCI-H522 was > 100 µM (inactive) throughout. The GI50 is > 100 µM (inactive) in the test with SW-620; > 100 µM (inactive) in the test on CAKI-1; > 100 µM (inactive) with SF-295; > 100 µM (inactive) in the test with BT-549; > 100 µM (inactive) in the test with MDA-N; above 100 µM in the test with HCT-15. Further, the GI50 in the test with OVCAR-4, in the test with LOX IMVI, in the test with HOP-62, in the test on SF-539, in the test with SK-OV-3 and with SK-MEL-2 was > 100 µM (inactive) in each case. Moreover, the GI50 with KM12 was > 100 µM (inactive).
Turning to `COC(=O)C1=C(C(=O)OC)C2(CCCCCC2=O)OC1=O` (configuration not stated), the GI50 with U-251, with CCRF-CEM, with HL-60, in the test with NCI-H522, with SW-620 and with CAKI-1 was > 100 µM (inactive) in each case. In addition, the GI50 was > 100 µM (inactive) in the test on SF-295; above 100 µM with HCT-15; > 100 µM (inactive) with OVCAR-4; > 100 µM (inactive) with HOP-62; > 100 µM (inactive) in the test on M19-MEL; > 100 µM (inactive) in the test with SF-539. Also, the GI50 in the test with SK-OV-3, with SK-MEL-2 and in the test on KM12 was > 100 µM (inactive) throughout.

Values taken from ChEMBL document CHEMBL1201862, “PubChem BioAssay data set” (2004).
